Values quoted from earlier work as cited in patent US20230110028A1, “OXYBATE POLYETHYLENE GLYCOL PRODRUGS” (Tris Pharma, Inc., priority 2021, published 2023).

What was measured:
[1] = in vivo
[2] = not given; remark: listed apart in the source
[3] = forms gamma-butyrolactone (GBL) at pH below 7

Row | Compound | Solubility [mg/mL] | further results
1 | O=C(O)CCCO [oxybate, gamma hydroxybutyrate] | – | elimination half-life [1]: 30 to 40 min
2 | Sulfobutyl ether-β-cyclodextrin | ≥500 | –
3 | O=C(O)CCCO [Sodium oxybate] | – | solubility in aqueous solutions [2]: very soluble; stability in acidic medium [3]: unstable
4 | Randomly methylated-β-cyclodextrin | ≥500 | –
5 | Hydroxypropyl-β-cyclodextrin | ≥600 | –
